# Laboratory results: patent US10597388B2, “Pyridazinone herbicides” (FMC CORPORATION, priority 2014, dated 2020)
# How the values were obtained:
# Assay in all cases: Test D controlled growth environment herbicide test, pre- and postemergence
# Type in all cases: in vivo
# [1] = system: buckwheat, wild (wild buckwheat, Polygonum convolvulus)
# How it was run: (§1)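 Rating is visual, 0–100 scale (100 = complete control), made against untreated plants 14–21 d after treatment in controlled growth conditions. Postemergence sprays went onto 1- to 4-leaf plants in peat medium; preemergence sprays onto silt loam after sowing; formulation included a surfactant.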
# [2] = system: chamomile (scentless chamomile, Matricaria inodora)
# How it was run: as §1
# [3] = system: radish, wild (wild radish, Raphanus raphanistrum)
# How it was run: as §1
# [4] = system: mustard, wild (wild mustard, Sinapis arvensis)
# How it was run: as §1
# [5] = system: field poppy (Papaver rhoeas)
# How it was run: as §1
# [6] = system: canarygrass (Phalaris minor)
# How it was run: as §1
# [7] = system: oilseed rape (Brassica napus)
# How it was run: as §1
# [8] = system: wheat, spring (spring wheat, Triticum aestivum)
# How it was run: as §1
# [9] = system: Russian thistle (Salsola kali)
# How it was run: as §1
# [10] = system: oat, wild (wild oat, Avena fatua)
# How it was run: as §1
# [11] = system: bromegrass, downy (downy bromegrass, Bromus tectorum)
# How it was run: as §1
# [12] = system: bluegrass (annual bluegrass, Poa annua)
# How it was run: as §1
# [13] = system: field violet (Viola arvensis)
# How it was run: as §1
# [14] = Postemergence, 31 g ai/ha, scale 0 to 100 (0 no effect, 100 complete control)
# [15] = Postemergence, 125 g ai/ha, visual rating on scale 0 (no effect) to 100 (complete control), 14 to 21 d
# [16] = Postemergence, 250 g ai/ha, scale 0 to 100 (0 no effect, 100 complete control)
# [17] = Preemergence, 62 g ai/ha, scale 0 to 100 (0 no effect, 100 complete control)
# [18] = Preemergence, 125 g ai/ha, scale 0 to 100 (0 no effect, 100 complete control)
# [19] = Preemergence, 250 g ai/ha, scale 0 to 100 (0 no effect, 100 complete control)
# [20] = postemergence, 62 g ai/ha, scale 0 to 100, 0 no effect, 100 complete control
compound,measurement,setting,value
Cc1cc(C)c2sc(C)c(-c3c(OC(=O)OC(C)C)c(C)nn(C)c3=O)c2c1 [Compound 67],"Buckwheat, Wild plant response rating",[1]; [14],100
same,"Plant response rating, Buckwheat, Wild",[1]; [15],100
same,"Plant response rating, Buckwheat, Wild",[1]; [16],100
same,"Plant response rating (scale of 0 to 100), Buckwheat, Wild","[1]; Preemergence, 31 g ai/ha",0
same,"Plant response rating, Buckwheat, Wild",[1]; [17],0
same,"Plant response rating, Buckwheat, Wild",[1]; [18],0
same,"Plant response rating, Buckwheat, Wild",[1]; [19],0
same,"Plant response rating, Buckwheat, Wild",[1]; [20],100
same,Chamomile plant response rating,[2]; [14],95
same,"Plant response rating, Chamomile",[2]; [15],100
same,"Plant response rating, Chamomile",[2]; [16],100
same,"Plant response rating (scale of 0 to 100), Chamomile","[2]; Preemergence, 31 g ai/ha",95
same,"Plant response rating, Chamomile",[2]; [17],95
same,"Plant response rating, Chamomile",[2]; [18],100
same,"Plant response rating, Chamomile",[2]; [19],100
same,"Plant response rating, Chamomile",[2]; [20],100
same,"Radish, Wild plant response rating",[3]; [14],55
same,"Plant response rating, Radish, Wild",[3]; [15],70
same,"Plant response rating, Radish, Wild",[3]; [16],95
same,"Plant response rating (scale of 0 to 100), Radish, Wild","[3]; Preemergence, 31 g ai/ha",25
same,"Plant response rating, Radish, Wild",[3]; [17],60
same,"Plant response rating, Radish, Wild",[3]; [18],75
same,"Plant response rating, Radish, Wild",[3]; [19],95
same,"Plant response rating, Radish, Wild",[3]; [20],65
same,"Mustard, Wild plant response rating",[4]; [14],25
same,"Plant response rating, Mustard, Wild",[4]; [15],40
same,"Plant response rating, Mustard, Wild",[4]; [16],65
same,"Plant response rating (scale of 0 to 100), Mustard, Wild","[4]; Preemergence, 31 g ai/ha",0
same,"Plant response rating, Mustard, Wild",[4]; [17],0
same,"Plant response rating, Mustard, Wild",[4]; [18],0
same,"Plant response rating, Mustard, Wild",[4]; [19],0
same,"Plant response rating, Mustard, Wild",[4]; [20],35
same,Field Poppy plant response rating,[5]; [14],80
same,"Plant response rating, Field Poppy",[5]; [15],100
same,"Plant response rating, Field Poppy",[5]; [16],100
same,"Plant response rating (scale of 0 to 100), Field Poppy","[5]; Preemergence, 31 g ai/ha",100
same,"Plant response rating, Field Poppy",[5]; [17],100
same,"Plant response rating, Field Poppy",[5]; [18],100
same,"Plant response rating, Field Poppy",[5]; [19],100
same,"Plant response rating, Field Poppy",[5]; [20],100
same,Canarygrass plant response rating,[6]; [14],75
same,"Plant response rating, Canarygrass",[6]; [15],85
same,"Plant response rating, Canarygrass",[6]; [16],95
same,"Plant response rating (scale of 0 to 100), Canarygrass","[6]; Preemergence, 31 g ai/ha",40
same,"Plant response rating, Canarygrass",[6]; [17],85
same,"Plant response rating, Canarygrass",[6]; [18],90
same,"Plant response rating, Canarygrass",[6]; [19],95
same,"Plant response rating, Canarygrass",[6]; [20],85
same,Oilseed Rape plant response rating,[7]; [14],70
same,"Plant response rating, Oilseed Rape",[7]; [15],85
same,"Plant response rating, Oilseed Rape",[7]; [16],90
same,"Plant response rating (scale of 0 to 100), Oilseed Rape","[7]; Preemergence, 31 g ai/ha",10
same,"Plant response rating, Oilseed Rape",[7]; [17],20
same,"Plant response rating, Oilseed Rape",[7]; [18],25
same,"Plant response rating, Oilseed Rape",[7]; [19],25
same,"Plant response rating, Oilseed Rape",[7]; [20],80
same,"Wheat, Spring plant response rating",[8]; [14],0
same,"Plant response rating, Wheat, Spring",[8]; [15],0
same,"Plant response rating, Wheat, Spring",[8]; [16],5
same,"Plant response rating (scale of 0 to 100), Wheat, Spring","[8]; Preemergence, 31 g ai/ha",0
same,"Plant response rating, Wheat, Spring",[8]; [17],0
same,"Plant response rating, Wheat, Spring",[8]; [18],0
same,"Plant response rating, Wheat, Spring",[8]; [19],10
same,"Plant response rating, Wheat, Spring",[8]; [20],0
same,Russian Thistle plant response rating,[9]; [14],55
same,"Plant response rating, Russian Thistle",[9]; [15],75
same,"Plant response rating, Russian Thistle",[9]; [16],85
same,"Plant response rating (scale of 0 to 100), Russian Thistle","[9]; Preemergence, 31 g ai/ha",0
same,"Plant response rating, Russian Thistle",[9]; [17],0
same,"Plant response rating, Russian Thistle",[9]; [18],0
same,"Plant response rating, Russian Thistle",[9]; [19],25
same,"Plant response rating, Russian Thistle",[9]; [20],60
same,"Oat, Wild plant response rating",[10]; [14],95
same,"Plant response rating, Oat, Wild",[10]; [15],100
same,"Plant response rating, Oat, Wild",[10]; [16],100
same,"Plant response rating (scale of 0 to 100), Oat, Wild","[10]; Preemergence, 31 g ai/ha",70
same,"Plant response rating, Oat, Wild",[10]; [17],75
same,"Plant response rating, Oat, Wild",[10]; [18],80
same,"Plant response rating, Oat, Wild",[10]; [19],90
same,"Plant response rating, Oat, Wild",[10]; [20],98
same,"Bromegrass, Downy plant response rating",[11]; [14],60
same,"Plant response rating, Bromegrass, Downy",[11]; [15],65
same,"Plant response rating, Bromegrass, Downy",[11]; [16],70
same,"Plant response rating (scale of 0 to 100), Bromegrass, Downy","[11]; Preemergence, 31 g ai/ha",25
same,"Plant response rating, Bromegrass, Downy",[11]; [17],35
same,"Plant response rating, Bromegrass, Downy",[11]; [18],35
same,"Plant response rating, Bromegrass, Downy",[11]; [19],70
same,"Plant response rating, Bromegrass, Downy",[11]; [20],60
same,Bluegrass plant response rating,[12]; [14],5
same,"Plant response rating, Bluegrass",[12]; [15],20
same,"Plant response rating, Bluegrass",[12]; [16],30
same,"Plant response rating (scale of 0 to 100), Bluegrass","[12]; Preemergence, 31 g ai/ha",0
same,"Plant response rating, Bluegrass",[12]; [17],0
same,"Plant response rating, Bluegrass",[12]; [18],20
same,"Plant response rating, Bluegrass",[12]; [19],50
same,"Plant response rating, Bluegrass",[12]; [20],15
same,Field Violet plant response rating,[13]; [14],80
same,"Plant response rating, Field Violet",[13]; [15],90
same,"Plant response rating, Field Violet",[13]; [16],95
same,"Plant response rating (scale of 0 to 100), Field Violet","[13]; Preemergence, 31 g ai/ha",85
same,"Plant response rating, Field Violet",[13]; [17],98
same,"Plant response rating, Field Violet",[13]; [18],100
same,"Plant response rating, Field Violet",[13]; [19],100
same,"Plant response rating, Field Violet",[13]; [20],80
